Measurements: US9096624B2 (OSI Pharmaceuticals, LLC, priority 2009, dated 2015)

What was measured:
[1] = target: T1, FAK (Homo sapiens, UniProt Q05397); assay: Cell-based capture ELISA for inhibition of FAK autophosphorylation [pY397] in MiaPaCa2 cells
Protocol: Cell-Based Assays for Inhibition of FAK Autophosphorylation: MiaPaCa2 and U87MG
ELISA kit from Invitrogen (KHO0441).
Reagents Provided in Biosource FAK [pY397]
The cells were then suspended in cell assay medium.

[2] = target: T1, FAK; assay: biochemical
[3] = MIA-PaCa2 cells, + 50% mouse plasma (Table 3), read-out: Mean FAK Cell Mechanistic IC50 + 50% mP MIA-PaCa2
[4] = MIA-PaCa2 cells on fibronectin, 2 h, no plasma, read-out: Mean FAK Cell Mechanistic IC50 MIA-PaCa2
[5] = MIA-PaCa2 cells, + 50% human plasma, read-out: Mean FAK Cell Mechanistic IC50 + 50% hP MIA-PaCa2
[6] = MIA-PaCa2 cells, + 50% mouse plasma (Table 2), read-out: Mean FAK Cell Mechanistic IC50 + 50% mP MIA-PaCa2

T1 sequence (Q05397 whole entry): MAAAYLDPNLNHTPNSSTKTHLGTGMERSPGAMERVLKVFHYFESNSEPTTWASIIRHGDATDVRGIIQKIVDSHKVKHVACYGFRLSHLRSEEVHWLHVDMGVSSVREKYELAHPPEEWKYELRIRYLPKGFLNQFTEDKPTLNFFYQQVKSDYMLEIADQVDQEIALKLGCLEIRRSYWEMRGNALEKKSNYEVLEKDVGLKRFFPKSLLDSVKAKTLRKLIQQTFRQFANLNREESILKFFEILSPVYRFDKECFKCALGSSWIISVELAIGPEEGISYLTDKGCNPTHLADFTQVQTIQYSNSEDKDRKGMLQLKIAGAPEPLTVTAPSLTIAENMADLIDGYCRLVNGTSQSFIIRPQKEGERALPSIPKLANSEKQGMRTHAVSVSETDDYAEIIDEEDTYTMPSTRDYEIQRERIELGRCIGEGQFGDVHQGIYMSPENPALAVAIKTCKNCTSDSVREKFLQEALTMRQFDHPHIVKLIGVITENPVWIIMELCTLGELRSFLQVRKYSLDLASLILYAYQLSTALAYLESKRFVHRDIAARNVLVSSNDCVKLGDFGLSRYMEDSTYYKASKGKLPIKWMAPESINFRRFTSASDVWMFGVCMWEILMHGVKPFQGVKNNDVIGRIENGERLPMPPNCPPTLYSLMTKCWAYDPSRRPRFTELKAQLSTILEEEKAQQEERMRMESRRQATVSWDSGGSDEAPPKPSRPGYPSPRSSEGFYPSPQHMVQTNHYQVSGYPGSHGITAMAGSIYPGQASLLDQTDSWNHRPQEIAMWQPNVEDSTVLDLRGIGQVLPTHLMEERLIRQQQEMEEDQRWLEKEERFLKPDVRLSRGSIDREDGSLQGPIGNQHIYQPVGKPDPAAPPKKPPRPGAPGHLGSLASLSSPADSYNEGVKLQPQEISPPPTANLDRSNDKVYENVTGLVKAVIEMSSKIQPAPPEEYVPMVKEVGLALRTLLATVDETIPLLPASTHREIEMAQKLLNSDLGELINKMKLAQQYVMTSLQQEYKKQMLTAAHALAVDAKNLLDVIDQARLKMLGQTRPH

Compound | IC50 [1, 3] [nM] | IC50 [2] [nM] | also measured
CCOP(=O)(Cc1ccc(Nc2ncc(C(F)(F)F)c(Nc3ccc(N4CCN(CC(=O)O)CC4)c4c3C(=O)N(C)C4)n2)cc1)OCC [Example 251, [4-(7-{[2-({4-[(Diethoxyphosphoryl)methyl]phenyl}amino)-5-(trifluoromethyl)pyrimidin-4-yl]amino}-2-methyl-1-oxo-2,3-dihydro-1H-isoindol-4-yl)piperazin-1-yl]acetic acid] | < 1000 | < 1000 | 
CN(c1ncccc1CNc1nc(Nc2cccc(CP(=O)(O)O)c2)ncc1C(F)(F)F)S(C)(=O)=O [Example 43, [3-({4-[({2-[Methyl(methylsulfonyl)amino]pyridin-3-yl}methyl)amino]-5-(trifluoromethyl)pyrimidin-2-yl}amino)benzyl]phosphonic acid] |  | < 1000 | IC50 [1, 4]: 1000 to 10000 nM; IC50 [1, 5]: 1000 to 10000 nM; IC50 [1, 6]: 1000 to 10000 nM
CCC(C)OP(=O)(Cc1ccc(Nc2ncc(C(F)(F)F)c(NCc3cccnc3N(C)S(C)(=O)=O)n2)cc1)OC(C)CC (stereo not shown) [Example 29, dibutan-2-yl [4-({4-[({2-[methyl(methylsulfonyl)amino]pyridin-3-yl}methyl)amino]-5-(trifluoromethyl)pyrimidin-2-yl}amino)benzyl]phosphonate] |  | < 1000 | IC50 [1, 4]: < 1000 nM; IC50 [1, 5]: 1000 to 10000 nM; IC50 [1, 6]: 1000 to 10000 nM
COCCOP(=O)(Cc1ccc(Nc2ncc(C(F)(F)F)c(Nc3ccc([C@H]4CC[C@H](O)CC4)c4c3C(=O)N(C)C4)n2)c(OC)c1)OCCOC [Example 217, Bis(2-methoxyethyl) (4-{[4-{[7-(trans-4-hydroxycyclohexyl)-2-methyl-3-oxo-2,3-dihydro-1H-isoindol-4-yl]amino}-5-(trifluoromethyl)pyrimidin-2-yl]amino}-3-methoxybenzyl)phosphonate] | < 1000 | < 1000 | 
CCOP(=O)(OCC)C(F)(F)c1ccc(Nc2ncc(C(F)(F)F)c(Nc3ccccc3C(=O)NC)n2)cc1 [Example 188, Diethyl [difluoro(4-{[4-{[2-(methylcarbamoyl)phenyl]amino}-5-(trifluoromethyl)-pyrimidin-2-yl]amino}phenyl)methyl]phosphonate] | < 1000 | < 1000 | 
CCOP(=O)(Cc1ccc(Nc2ncc(C(F)(F)F)c(Nc3ccc(CN4CCCC4)c4c3C(=O)N(C)C4)n2)cc1)OCC [Example 109, Diethyl (4-{[4-{[2-methyl-3-oxo-7-(pyrrolidin-1-ylmethyl)-2,3-dihydro-1H-isoindol-4-yl]amino}-5-(trifluoromethyl)pyrimidin-2-yl]amino}benzyl)phosphonate] | 1000 to 10000 | < 1000 | 
CCOP(=O)(Cc1ccc(Nc2ncc(C(F)(F)F)c(Nc3ccc(N4CCN(C)CC4)c4c3C(=O)N(C)C4)n2)cc1)OCC [Example 201, Diethyl (4-{[4-{[2-methyl-7-(4-methylpiperazin-1-yl)-3-oxo-2,3-dihydro-1H-isoindol-4-yl]amino}-5-(trifluoromethyl)pyrimidin-2-yl]amino}benzyl)phosphonate] | < 1000 | < 1000 | 
CNC(=O)c1ccccc1Nc1nc(Nc2ccc(CP(=O)(OCC(F)(F)F)OCC(F)(F)F)cc2OC)ncc1C(F)(F)F [Example 114, Bis(2,2,2-trifluoroethyl)(3-methoxy-4-{[4-{[2-(methylcarbamoyl)phenyl]amino}-5-(trifluoromethyl)pyrimidin-2-yl]amino}benzyl)phosphonate] | < 1000 | < 1000 | 
CCCP(=O)(CCC)c1cccc(Nc2ncc(C(F)(F)F)c(Nc3ccc(-c4cnn(CCO)c4)c4c3C(=O)N(C)C4)n2)c1 [Example 168, 7-{[2-{[3-(Dipropylphosphoryl)phenyl]amino}-5-(trifluoromethyl)pyrimidin-4-yl]amino}-4-[1-(3-hydroxyethyl)-1H-pyrazol-4-yl]-2-methyl-2,3-dihydro-1H-isoindol-1-one] | < 1000 | < 1000 | 
CCOP(=O)(Cc1ccc(Nc2ncc(C(F)(F)F)c(Nc3ccc(N4CCOCC4)c4c3C(=O)N(C)C4)n2)cc1)OCC [Example 208, Diethyl (4-{[4-{[2-methyl-7-(morpholin-4-yl)-3-oxo-2,3-dihydro-1H-isoindol-4-yl]amino}-5-(trifluoromethyl)pyrimidin-2-yl]amino}benzyl)phosphonate] | < 1000 | < 1000 | 
CCOP(C)(=O)Cc1ccc(Nc2ncc(C(F)(F)F)c(Nc3ccc(-c4cnn(C[C@@H](O)CO)c4)c4c3C(=O)N(C)C4)n2)cc1 (stereo partly drawn) [Example 65, Ethyl [4-({4-[(7-{1-[(2R)-2,3-dihydroxypropyl]-1H-pyrazol-4-yl}-2-methyl-3-oxo-2,3-dihydro-1H-isoindol-4-yl)amino]-5-(trifluoromethyl)pyrimidin-2-yl}amino)benzyl]methylphosphinate] |  | < 1000 | IC50 [1, 4]: < 1000 nM; IC50 [1, 5]: < 1000 nM
CN(c1ncccc1CNc1nc(Nc2ccc(CP(=O)(OCCc3ccsc3)OCCc3ccsc3)cc2)ncc1C(F)(F)F)S(C)(=O)=O [Example 33, bis[2-(thiophen-3-yl)ethyl] [4-({4-[({2-[methyl(methylsulfonyl)amino]pyridin-3-yl}methyl)amino]-5-(trifluoromethyl)pyrimidin-2-yl}amino)benzyl]phosphonate] |  | < 1000 | IC50 [1, 6]: > 10000 nM
CCOP(=O)(Cc1ccc(Nc2ncc(C(F)(F)F)c(Nc3ccc(C(=O)O)c4c3C(=O)N(C)C4)n2)c(OC)c1)OCC [Example 129, 7-{[2-({4-[(Diethoxyphosphoryl)methyl]-2-methoxyphenyl}amino)-5-(trifluoromethyl)pyrimidin-4-yl]amino}-2-methyl-1-oxo-2,3-dihydro-1H-isoindole-4-carboxylic acid] | 1000 to 10000 | < 1000 | 
CCOP(C)(=O)Cc1ccc(Nc2ncc(C(F)(F)F)c(Nc3ccc(N4CCCC4)c4c3C(=O)N(C)C4)n2)cc1 (stereo not shown) [Example 80, Ethyl methyl(4-{[4-{[2-methyl-3-oxo-7-(pyrrolidin-1-yl)-2,3-dihydro-1H-isoindol-4-yl]amino}-5-(trifluoromethyl)pyrimidin-2-yl]amino}benzyl)phosphinate] |  | < 1000 | IC50 [1, 4]: < 1000 nM; IC50 [1, 5]: < 1000 nM
CCOP(=O)(Cc1ccc(Nc2ncc(C(F)(F)F)c(Nc3ccc(Br)cc3C(=O)NC)n2)c(OC)c1)OCC [Example 107, Diethyl (4-{[4-{[4-bromo-2-(methylcarbamoyl)phenyl]amino}-5-(trifluoromethyl)pyrimidin-2-yl]amino}-3-methoxybenzyl)phosphonate] | < 1000 | < 1000 | 
CCOP(=O)(Cc1ccc(Nc2ncc(C(F)(F)F)c(Nc3ccc(C4=CCN(C(N)=O)CC4)c4c3C(=O)N(C)C4)n2)c(OC)c1)OCC [Example 99, Diethyl (4-{[4-{[7-(1-carbamoyl-1,2,3,6-tetrahydropyridin-4-yl)-2-methyl-3-oxo-2,3-dihydro-1H-isoindol-4-yl]amino}-5-(trifluoromethyl)pyrimidin-2-yl]amino}-3-methoxybenzyl)phosphonate] | < 1000 |  | 
CN1Cc2c(c(Nc3nc(Nc4ccc(CP5(=O)OCCCO5)cc4)ncc3C(F)(F)F)ccc2[C@H]2CC[C@H](O)CC2)C1=O [compound 230] | < 1000 |  | 
CCOP(=O)(Cc1ccc(Nc2ncc(C(F)(F)F)c(Nc3ccc(-c4cnn(CC(C)(C)O)c4)c4c3C(=O)N(C)C4)n2)c(OC)c1)OCC [Example 98, Diethyl (4-{[4-({7-[1-(2-hydroxy-2-methylpropyl)-1H-pyrazol-4-yl]-2-methyl-3-oxo-2,3-dihydro-1H-isoindol-4-yl}amino)-5-(trifluoromethyl)pyrimidin-2-yl]amino}-3-methoxybenzyl)phosphonate] |  |  | IC50 ([1]; read-out: Mean FAK Cell Mechanistic IC50 + 50% mP MIA-PaCa2, MIA-PaCa2 cells, + 50% mouse plasma (Table 3)): < 1000 nM
CCOP(=O)(Cc1ccc(Nc2ncc(C(F)(F)F)c(Nc3ccc([C@H]4CC[C@@H](N5CCN(C(C)=O)CC5)CC4)c4c3C(=O)N(C)C4)n2)c(OC)c1)OCC [Example 237, Diethyl (4-{[4-({7-[cis-4-(4-acetylpiperazin-1-yl)cyclohexyl]-2-methyl-3-oxo-2,3-dihydro-1H-isoindol-4-yl}amino)-5-(trifluoromethyl)pyrimidin-2-yl]amino}-3-methoxybenzyl)phosphonate] | < 1000 |  | 
CCOP(=O)(Cc1ccc(Nc2ncc(C(F)(F)F)c(Nc3ccc(-c4cnn(C5CC(O)C5)c4)c4c3C(=O)N(C)C4)n2)c(OC)c1)OCC (stereo not shown) [Example 74, Diethyl (4-{[4-({7-[1-(3-hydroxycyclobutyl)-1H-pyrazol-4-yl]-2-methyl-3-oxo-2,3-dihydro-1H-isoindol-4-yl}amino)-5-(trifluoromethyl)pyrimidin-2-yl]amino}-3-methoxybenzyl)phosphonate] |  |  | IC50 [1, 6]: < 1000 nM
CCOP(=O)(Cc1ccc(Nc2ncc(C(F)(F)F)c(Nc3ccc(N4CCN5CCOCC5C4)c4c3C(=O)N(C)C4)n2)c(OC)c1)OCC (stereo not shown) [Example 122, Diethyl (4-{[4-{[7-(hexahydropyrazino[2,1-c][1,4]oxazin-8(1H)-yl)-2-methyl-3-oxo-2,3-dihydro-1H-isoindol-4-yl]amino}-5-(trifluoromethyl)pyrimidin-2-yl]amino}-3-methoxybenzyl)phosphonate] |  | < 1000 | 
CCOP(=O)(Cc1ccc(Nc2ncc(C(F)(F)F)c(Nc3ccc(N4CCOCC4)c4c3C(=O)N(C)C4)n2)c(OC)c1)OCC [Example 215, Diethyl (3-methoxy-4-{[4-{[2-methyl-7-(morpholin-4-yl)-3-oxo-2,3-dihydro-1H-isoindol-4-yl]amino}-5-(trifluoromethyl)pyrimidin-2-yl]amino}benzyl)phosphonate] |  | < 1000 | 
